This note sets out measurements from ChEMBL document CHEMBL3108777, “Isochromans and α-pyrones from Penicillium corylophilum” (J Nat Prod, 2014).

Test [1] addresses DNA topoisomerase 2-alpha (Homo sapiens, UniProt P11388). The test is described as follows: Inhibition of topoisomerase-2 (unknown origin).
Test [2] can be described thus: Inhibition of DNA gyrase (unknown origin)-mediated DNA relaxation.
The nature of test [3]: Inhibition of DNA gyrase (unknown origin)-mediated DNA supercoiling.
Test [4] concerns Pseudomonas putida. The test is described as follows: Antibacterial activity against Pseudomonas putida ATCC 12633 at <50 ug/ml measured every 1 hr. The format is functional, organism-based.
The subject of test [5] is Bacillus subtilis. The experiment in a line: Antibacterial activity against Bacillus subtilis ATCC 23857 at <50 ug/ml measured every 1 hr. Type of test: functional, organism-based.
The test system of test [6] is Saccharomyces cerevisiae. The experiment in a line: Antifungal activity against Saccharomyces cerevisiae assessed as growth inhibition measured every 4 hrs. Type of test: functional.

Converted amounts (≈) assume the structure as drawn. The source made the active and inactive calls. The calls are words filed in the database; no cut-off is given here.

One may read the IC50 as the concentration that inhibits the measured activity by half. As a reminder, the MIC is the least concentration at which growth counts as inhibited.

Sequence of DNA topoisomerase 2-alpha (P11388 whole entry): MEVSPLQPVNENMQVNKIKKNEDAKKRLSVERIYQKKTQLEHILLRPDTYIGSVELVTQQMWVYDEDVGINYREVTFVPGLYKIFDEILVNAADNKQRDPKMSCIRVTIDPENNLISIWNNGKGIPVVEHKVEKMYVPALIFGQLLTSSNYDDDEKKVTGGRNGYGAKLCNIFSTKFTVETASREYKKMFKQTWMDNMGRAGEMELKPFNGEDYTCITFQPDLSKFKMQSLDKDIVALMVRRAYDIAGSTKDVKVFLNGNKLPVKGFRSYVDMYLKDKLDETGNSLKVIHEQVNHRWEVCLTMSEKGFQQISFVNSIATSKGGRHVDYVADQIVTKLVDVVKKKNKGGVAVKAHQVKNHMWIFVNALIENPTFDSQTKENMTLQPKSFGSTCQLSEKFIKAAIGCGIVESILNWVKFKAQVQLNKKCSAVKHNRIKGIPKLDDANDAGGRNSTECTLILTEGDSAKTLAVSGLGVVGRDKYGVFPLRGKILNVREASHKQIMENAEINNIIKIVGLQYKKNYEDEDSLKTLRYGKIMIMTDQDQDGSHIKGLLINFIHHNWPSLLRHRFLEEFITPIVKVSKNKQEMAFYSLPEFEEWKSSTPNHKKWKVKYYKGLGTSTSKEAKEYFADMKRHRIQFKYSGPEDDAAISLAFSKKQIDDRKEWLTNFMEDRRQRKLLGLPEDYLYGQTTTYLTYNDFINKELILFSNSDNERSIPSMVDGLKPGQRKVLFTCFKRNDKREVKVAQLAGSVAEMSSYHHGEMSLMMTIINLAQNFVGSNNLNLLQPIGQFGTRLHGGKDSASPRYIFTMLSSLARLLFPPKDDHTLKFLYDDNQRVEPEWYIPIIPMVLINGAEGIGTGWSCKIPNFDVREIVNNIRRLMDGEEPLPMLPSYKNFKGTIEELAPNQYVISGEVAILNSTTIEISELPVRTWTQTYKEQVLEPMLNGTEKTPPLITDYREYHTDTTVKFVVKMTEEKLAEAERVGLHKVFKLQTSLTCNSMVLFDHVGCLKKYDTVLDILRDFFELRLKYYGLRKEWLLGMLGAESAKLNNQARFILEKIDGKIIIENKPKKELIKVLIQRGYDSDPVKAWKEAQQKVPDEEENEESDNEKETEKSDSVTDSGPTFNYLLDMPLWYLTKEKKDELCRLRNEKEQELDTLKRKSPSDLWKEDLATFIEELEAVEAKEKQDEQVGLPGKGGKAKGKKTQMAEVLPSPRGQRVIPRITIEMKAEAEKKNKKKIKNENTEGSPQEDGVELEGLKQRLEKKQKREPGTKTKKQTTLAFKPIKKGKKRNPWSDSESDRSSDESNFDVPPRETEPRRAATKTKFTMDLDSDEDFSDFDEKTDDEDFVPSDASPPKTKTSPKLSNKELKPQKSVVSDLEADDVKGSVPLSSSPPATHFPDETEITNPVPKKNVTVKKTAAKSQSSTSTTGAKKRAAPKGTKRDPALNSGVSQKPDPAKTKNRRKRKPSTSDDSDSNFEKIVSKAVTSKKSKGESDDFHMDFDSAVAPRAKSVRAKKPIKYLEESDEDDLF

Consider `CCCCCCC[C@H]1Cc2cc(O)c(C(=O)O)c(O)c2[C@@H](O)O1`, for which the IC50 was 3.08 µM in test [1], 9 µg/mL (≈ 27.7 µM) in test [2] and 6 µg/mL (≈ 18.5 µM) in test [3].

For the compound `O=C(O)c1c(O)cc2c(c1O)CO[C@@H](CCCCCCCO)C2`, the result in test [4] and in test [5] was inactive. The MIC in test [6] worked out at 100 µg/mL (≈ 308 µM).

On to `C[C@@H](O)CCCCC[C@H]1Cc2cc(O)c(C(=O)O)c(O)c2[C@@H](O)O1`, for which the outcome in test [4] and in test [5] was inactive. In addition, the MIC in test [6] was found to be 100 µg/mL (≈ 294 µM).

For the compound `C[C@@H](O)CCCCC[C@H]1Cc2cc(O)c(C(=O)O)c(O)c2CO1`, the result in test [4] and in test [5] was inactive. The MIC in test [6] amounted to 100 µg/mL (≈ 308 µM).

As to NYSTATIN, in test [6], the MIC is less than 5 µg/mL.

On to `CCCCCCC[C@@H](O)C[C@H](O)Cc1cc(O)c(C)c(=O)o1`, for which the result in test [4] and in test [5] was inactive.

Take `O=C(O)c1c(O)cc2c(c1O)[C@@H](O)O[C@@H](CCCCCCCO)C2`: the outcome in test [4] and in test [5] was inactive. For the same compound, the MIC in test [6] amounted to 100 µg/mL (≈ 294 µM).

With `Cc1c(O)cc(C[C@@H](O)CCCCCCCO)oc1=O`, the result in test [4] and in test [5] was inactive.

Turning to `Cc1c(O)cc(C[C@@H](O)C[C@H](O)CCCCCCCO)oc1=O`, the result in test [4] and in test [5] was inactive.
